Drawing on patent US8951999B2, “Compounds” (Orexo AB, priority 2009, dated 2015), this text covers IC50 for 35 compounds.

Each structure is given as a SMILES string. Bounds are passed on as bounds.

This test has as its target T1, recombinant human mPGES-1 (Homo sapiens, UniProt O14684).
T1 sequence (O14684 1-152): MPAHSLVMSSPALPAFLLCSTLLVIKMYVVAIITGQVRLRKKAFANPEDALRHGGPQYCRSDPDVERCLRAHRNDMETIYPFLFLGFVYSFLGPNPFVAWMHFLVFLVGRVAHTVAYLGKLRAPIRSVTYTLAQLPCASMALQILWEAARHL
Put plainly: Assay B: mPGES-1 enzyme assay (modified). It counts as biochemical. The conditions noted are these: biological assay B (all other compounds); PGH2 final conc. 2 μM, HTRF; read-out: mPGES-1 inhibitory effect IC50. The method, then:
Assay B: mPGES-1 Enzyme Assay (Modified)
The aim of this assay is to determine the affinity of a test compound for the mPGES-1 enzyme.
47 μl of recombinant human mPGES-1 (˜0.5 μg protein/well) containing microsomal suspension in a buffer containing GSH, (2.5 mmol/L L-Glutathione reduced, dissolved in 0.1 mol/L Phosphat Buffer pH 7.4) is dispensed in a 384-well plate and thereafter 1 μl of the test compound(s) is/are added and incubated for 25 minutes at room temperature. The enzyme reaction is started by the addition of 2 ul PGH2 (final conc. 2 μM) dissolved in water-free Diglyme. After 60 seconds the reaction is terminated by addition of a stop solution containing FeCl2 (10 μL 0.074 mol/l FeCl2). The samples are diluted between 1:25 in PBS (Phosphate Buffered Saline). 10 μl of the diluted samples are transferred to 384-well low volume plate. In order to quantify the amount of PGE2 that has been formed, a homogenous time resolved fluorescent (HTRF) detecting of PGE2 has been performed using a commercially available kit from Cisbio according to the manufactures recommendation. This HTRF-based assay has been described in detail (see: Goedken et al., J Biomol Screen, 2008, 13(7), 619-625). Briefly, the diluted samples are mixed with […] PGE2-d2 conjugate and 5 μl anti-PGE2 cryptate conjugate. After an incubation period of the plates over night, the fluorescence is measured by the use of an appropriate microplate reader.
The fluorescence of Europium cryptate (maxex=307 nm, maxem=620 nm) and d2-PGE2 (maxex=620 nm, maxem=665 nm) are measured.
The extent of the specific HTRF is measured as a ratio of the emission intensity at 665 nm vs. that at 620 nm at an excitation pulse of 320 nm. The quantification plate contains also wells with different concentrations of PGE2 as calibration curve for the calculation of the PGE2 concentrations from the HTRF ratio values.
From all mPGES enzyme assay the background is subtracted and the IC50 is calculated over a nonlinear regression with conventional software.
(In general: TR-FRET usually uses a lanthanide donor and a delayed reading to cut background.)
The IC50 is the midpoint of a concentration-inhibition curve. Consider `CC(C)(C)C(=O)NCc1ccc(Cl)c(C(=O)Nc2ccc(OCC(F)F)c(C(=O)N[C@H]3CC[C@H](C(F)(F)F)CC3)c2)c1Cl` [Example 48, N-[4-(2,2-Difluoroethyl)oxy-3-[trans-(4-trifluoromethylcyclohexyl)amino]carbonylphenyl]-2,6-dichloro-3-(tert-butylcarbonylamino)methyl-benzamide], for which the IC50 came to 6 nM. The same measure for `CC(C)(C(=O)NCc1ccc(Cl)c(C(=O)Nc2ccc(OCC(F)F)c(C(=O)Nc3ccc(Cl)c(C(F)(F)F)c3)c2)c1)C(F)(F)F` [Example 126]: 4 nM; for `O=C(Nc1ccc(OCC(F)F)c(C(=O)Nc2ccc(Br)cc2)c1)c1cc(CNC(=O)C2CCCN2c2nccs2)ccc1Cl` (centres unmarked) [Example 164]: 79 nM; for `CC(NC(=O)c1cc(NC(=O)c2cc(CNC(=O)C(C)(C)C(F)(F)F)ccc2Cl)ccc1OCC(F)F)C(F)(F)F` (centres unmarked) [Example 99]: 7 nM. The same measure for `CC(C)(C(=O)NCc1ccc(Cl)c(C(=O)Nc2ccc(OCC(F)F)c(C(=O)Nc3ccc(Cl)cc3Cl)c2)c1)C(F)(F)F` [Example 94]: 6 nM. The same measure for `COCCOc1ccc(NC(=O)c2cc(CNC(=O)C(C)(C)C(F)(F)F)ccc2Cl)cc1C(=O)Nc1ccc(Br)cc1` [Example 72]: 4 nM.

With `CC(C)(C(=O)NCc1ccc(Cl)c(C(=O)Nc2ccc(OCC(F)F)c(C(=O)NCCC3CC3)c2)c1)C(F)(F)F` [Example 143], the IC50 is 6 nM.

As to `CC(C)(C(=O)NCc1ccc(Cl)c(C(=O)Nc2ccc(OCC(F)F)c(C(=O)Nc3ccc(OC(F)(F)F)c(Cl)c3)c2)c1)C(F)(F)F` [Example 130], the IC50 was determined as 4 nM. The same measure for `CC(C)(C)C(=O)NCc1ccc(Cl)c(C(=O)Nc2ccc(N[C@H]3CC[C@H](C(F)(F)F)CC3)c(C(=O)N[C@H]3CC[C@H](C(F)(F)F)CC3)c2)c1` [Example 56, N-[4-(trans-4-trifluoromethylcyclohexyl)amino-3-[trans-(4-trifluoromethylcyclohexyl)amino]carbonyl-phenyl]-2-chloro-5-(tert-butylcarbonylamino)methyl-benzamide]: 128 nM. The result for `COC(C)(C)C(=O)NCc1ccc(Cl)c(C(=O)Nc2ccc(OCC(F)F)c(C(=O)Nc3ccc(Br)cc3)c2)c1` [Example 160] reads 7 nM; that for `CC(C)(C(=O)NCc1ccc(Cl)c(C(=O)Nc2ccc(OCC(F)F)c(C(=O)Nc3cccc(Cl)c3)c2)c1Cl)C(F)(F)F` [Example 150], 2 nM; that for `CC(C)(C(=O)NCc1ccc(Cl)c(C(=O)Nc2ccc(OCC(F)F)c(C(=O)NCc3ccccc3C(F)(F)F)c2)c1)C(F)(F)F` [Example 84], 6 nM.

Regarding `CC(C)(C#N)C(=O)NCc1ccc(Cl)c(C(=O)Nc2ccc(OCC(F)F)c(C(=O)Nc3ccc(Br)cc3)c2)c1` [Example 165], the IC50 was found to be 8 nM. Take `CC(C)(C(=O)NCc1ccc(Cl)c(C(=O)Nc2ccc(OCC(F)F)c(C(=O)NCCCC(F)(F)F)c2)c1)C(F)(F)F` [Example 121]: the IC50 came to 11 nM. The result for `CC(C)(C)C(=O)NCc1ccc(F)c(C(=O)Nc2ccc(F)c(C(=O)Nc3ccc(Br)cc3)c2)c1F` [Example 49, N-[4-Fluoro-3-(4-bromophenyl)aminocarbonyl-phenyl]-2,6-difluoro-3-(tert-butylcarbonylamino)methyl-benzamide] reads 120 nM; that for `CC(C)(C)C(=O)NCc1ccc(Cl)c(C(=O)Nc2ccc(N3CCCC(C(F)(F)F)C3)c(C(=O)Nc3ccc(Br)cc3)c2)c1Cl` (centres unmarked) [Example 180], 2 nM. The same measure for `COCCOc1ccc(NC(=O)c2cc(CNC(=O)C(C)(C)C)ccc2Cl)cc1C(=O)Nc1ccc(Br)cc1` [Example 70]: 5 nM. The result for `CC(C)(C)C(=O)NCc1ccc(Cl)c(C(=O)Nc2ccc(N3CCC(F)(F)CC3)c(C(=O)Nc3ccc(Br)cc3)c2)c1Cl` [Example 181] reads 2 nM. For the compound `CC(C)(C(=O)NCc1ccc(Cl)c(C(=O)Nc2ccc(N3CCC(F)CC3)c(C(=O)Nc3ccc(F)c(Cl)c3)c2)c1F)C(F)(F)F` [Example 57, N-[4-(4-Fluoro-piperidin-1-yl)-3-(3-chloro-4-fluorophenyl)aminocarbonyl-phenyl]-2-fluoro-6-chloro-3-[(2,2,2-trifluoro-1,1-dimethyl-ethyl)carbonylamino]methyl-benzamide], the IC50 came to 2 nM. With `COc1cc(NC(=O)c2cc(NC(=O)c3cc(CNC(=O)C(C)(C)C(F)(F)F)ccc3Cl)ccc2OCC(F)F)ccc1Br` [Example 120], the IC50 worked out at 7 nM. The result for `Cc1ccc(Cl)cc1NC(=O)c1cc(NC(=O)c2cc(CNC(=O)C(C)(C)C(F)(F)F)ccc2Cl)ccc1OCC(F)F` [Example 86] reads 5 nM; that for `CC(C)(C)C(=O)NCc1ccc(F)c(C(=O)Nc2cnc(OCC(F)F)c(C(=O)Nc3ccc(Br)cc3)c2)c1F` [Example 74], 47 nM; that for `O=C(Nc1ccc(OCC(F)F)c(C(=O)Nc2ccc(Br)cc2)c1)c1cc(CNC(=O)C(O)C(F)(F)F)ccc1Cl` (centres unmarked) [Example 169], 9 nM. The result for `CC(C)(C(=O)NCc1ccc(Cl)c(C(=O)Nc2ccc(OCC(F)F)c(C(=O)NC3CCc4ccccc4C3)c2)c1)C(F)(F)F` (centres unmarked) [Example 85] reads 6 nM; that for `CC(NC(=O)c1cc(NC(=O)c2cc(CNC(=O)C(C)(C)C(F)(F)F)ccc2Cl)ccc1OCC(F)F)C1CC1` (centres unmarked) [Example 135], 7 nM; that for `CC(C)(C(=O)NCc1ccc(Cl)c(C(=O)Nc2ccc(OCC(F)F)c(C(=O)Nc3ccc(Br)c(F)c3)c2)c1)C(F)(F)F` [Example 133], 6 nM. On to `CC(C)(O)C(=O)NCc1ccc(Cl)c(C(=O)Nc2ccc(OCC(F)F)c(C(=O)Nc3ccc(Br)cc3)c2)c1` [Example 172], for which the IC50 was found to be 6 nM. The same measure for `CC(C)(C(=O)NCc1ccc(Cl)c(C(=O)Nc2ccc(OCC(F)F)c(C(=O)NC3CCSCC3)c2)c1)C(F)(F)F` [Example 90]: 9 nM.

Turning to `CC(NC(=O)c1cc(NC(=O)c2c(Cl)ccc(CNC(=O)C(C)(C)C(F)(F)F)c2Cl)ccc1OCC(F)F)C(F)(F)F` (centres unmarked) [Example 159], the IC50 is 7 nM. With `COCCOc1ccc(NC(=O)c2cc(CNC(=O)C(C)(C)C)ccc2Cl)cc1C(=O)N[C@H]1CC[C@H](C(F)(F)F)CC1` [Example 71], the IC50 stood at 10 nM. The same measure for `CC(C)(C(=O)NCc1ccc(Cl)c(C(=O)Nc2ccc(OCC(F)F)c(C(=O)Nc3ccc(Br)cc3F)c2)c1)C(F)(F)F` [Example 100]: 5 nM; for `CC(N)(C(=O)NCc1ccc(Cl)c(C(=O)Nc2ccc(OCC(F)F)c(C(=O)Nc3ccc(Br)cc3)c2)c1)C(F)(F)F` (centres unmarked) [Example 171]: 6 nM; for `CC(C)(C)C(=O)NCc1ccc(C(F)(F)F)c(C(=O)Nc2ccc(OCC(F)F)c(C(=O)Nc3ccc(Br)cc3)c2)c1` [Example 42, N-[4-(2,2-Difluoroethyl)oxy-3-(4-bromophenyl)aminocarbonyl-phenyl]-2-trifluormethyl-5-(tert-butylcarbonylamino)methyl-benzamide]: 3 nM.

Take `CC(C)(C(=O)NCc1ccc(Cl)c(C(=O)Nc2ccc(OCC(F)F)c(C(=O)NCC3(O)CC3)c2)c1)C(F)(F)F` [Example 102]: the IC50 was more than 100 nM. The result for `CC(C(=O)NCc1ccc(Cl)c(C(=O)Nc2ccc(OCC(F)F)c(C(=O)Nc3ccc(Br)cc3)c2)c1)N1CCCC1` (centres unmarked) [Example 170] reads 50 nM.
